Laboratory results from patent publication US12478605B2, “Biochanin a derivatives for treatment of BEST1-related retinopathies” (Universität Regensburg, priority 2020, dated 2025).

What was measured:
Format in all cases: cell-based
[1] = system: untransfected MDCKII cells; assay: YFP-halide transport assay (I- influx), untransfected MDCKII controls; settings: compound addition for 24 h, YFP quenching, FIG. 4B
Procedure: (§1) Human hiPSC-RPE or MDCKII cells were transduced via lentivirus particles which were produced by co-transfecting HEK293T cells with the yellow fluorescence protein (YFPH148Q/I152L)-pLJM1 and helper plasmids pMD2.G and psPAX2 using the Ca^2+ phospate transfection method. After six weeks of cultivation in 96-well black microtiter plates, cells were incubated with 100 mM Cl^− containing solution and basal YFP fluorescence was measured in a Tecan microplate reader. Subsequently Cl^− was replaced with equimolar I^− and decrease of YFP fluorescence intensity was monitored for another 2 min in 10 sec intervals.
To analyze BEST1-mediated anion transport in the cell lines generated in the previous examples, a well-established halide transport assay (Galietta et al., 2001) was adapted. […] Addition of I— leads to specific YFP quenching over time and changes of fluorescence intensities can be monitored on a plate reader. MDCKII cells were incubated with 100 mM Cl— containing solution and steady state YFP fluorescence signal intensities were measured after 6 minutes. Subsequently, Cl— was replaced by equimolar I— and anion permeability was monitored by decreasing YFP intensities as a result of BEST1-mediated I— influx in a time course up to 2 minutes (FIG. 2B). […]

mutant BEST1 R218C [2] = target: T1, mutant BEST1 R218C (Homo sapiens, UniProt O76090, R218C); assay: YFP-halide transport assay (I- influx), MDCKII cells expressing mutant BEST1-R218C
T1 construct: expressed in transfected cells
T1 sequence (O76090 1-585 R218C): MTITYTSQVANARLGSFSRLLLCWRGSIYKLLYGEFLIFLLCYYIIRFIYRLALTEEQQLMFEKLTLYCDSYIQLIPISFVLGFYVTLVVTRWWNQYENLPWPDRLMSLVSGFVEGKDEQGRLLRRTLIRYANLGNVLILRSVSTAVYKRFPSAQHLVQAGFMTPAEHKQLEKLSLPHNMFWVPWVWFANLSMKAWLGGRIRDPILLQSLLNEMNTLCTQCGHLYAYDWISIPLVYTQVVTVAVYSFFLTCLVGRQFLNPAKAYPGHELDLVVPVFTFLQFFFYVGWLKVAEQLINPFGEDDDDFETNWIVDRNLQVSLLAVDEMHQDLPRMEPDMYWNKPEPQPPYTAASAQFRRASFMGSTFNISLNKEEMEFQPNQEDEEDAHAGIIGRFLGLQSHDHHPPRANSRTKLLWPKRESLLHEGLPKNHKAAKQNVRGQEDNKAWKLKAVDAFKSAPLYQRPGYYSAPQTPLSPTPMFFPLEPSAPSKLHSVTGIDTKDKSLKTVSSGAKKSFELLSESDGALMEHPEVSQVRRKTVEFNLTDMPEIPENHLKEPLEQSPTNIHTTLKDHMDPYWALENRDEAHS
Procedure: as §1
To analyze BEST1-mediated anion transport in the cell lines generated in the previous examples, a well-established halide transport assay (Galietta et al., 2001) was adapted. […] Addition of I— leads to specific YFP quenching over time and changes of fluorescence intensities can be monitored on a plate reader. MDCKII cells were incubated with 100 mM Cl— containing solution and steady state YFP fluorescence signal intensities were measured after 6 minutes. Subsequently, Cl— was replaced by equimolar I— and anion permeability was monitored by decreasing YFP intensities as a result of BEST1-mediated I— influx in a time course up to 2 minutes (FIG. 2B). For several independent BEST1 wildtype cell lines a fast kinetic of decreasing fluorescence intensities to ˜30 to 40% was observed while the untransfected control cell lines remained flat (FIGS. 2C and D).
Example 8—Evaluation of BioA(C2H3O2)2 activity in MDCKII cells MDCKII cells co-expressing YFP and BEST1 wildtype or mutant p.(R218C) were seeded on black 96-well plates and cultivated for 6 days to achieve polarity, a requirement for correct basolateral localization of BEST1 in epithelial cells. Compounds were tested separately at 10 μM concentration in a 96-well format. After compound addition for 24 h, cells were subjected to an inwardly directed I— gradient to drive I— influx and produce decreasing (quenched) fluorescence signals. […]

mutant BEST1 R218C [3] = target: T1, mutant BEST1 R218C; assay: YFP-based I- efflux assay in MDCKII cells co-expressing YFP and mutant BEST1 R218C; settings: 5 μM, compound addition for 24 h, FIGS. 6-8
Procedure: MDCKII cells co-expressing yellow fluorescence protein (YFP) and mutant BEST1 R218C were seeded on black 96-well plates and cultivated for 6 days to achieve polarity, a crucial requirement for correct basolateral localization of BEST1 in epithelial cells. Compounds were tested at 5 μM concentration in a 96-well format. After compound addition for 24 h, cells were subjected to an outwardly directed iodid (I^−)-gradient to drive BEST1-mediated I^− efflux and produce increasing fluorescence signals. Each assay consisted of recording of YFP quenching after I^− pre-incubation for 6 min (=100% value), followed by 7 min of recording of increasing fluorescence after addition of the chloride (Cr) containing solution. Changes of fluorescence intensities were monitored on a plate reader. The effect on the kinetics of I— efflux was tested for Biochanin A (FIG. 6A), Trimethoxyisoflavone (FIG. 6B), 5,4-dimethoxy hydroxyisoflavone (FIG. 6C), Biochanin A-7-methyl ether (FIG. 6D), Biochanin A-7-acetate (FIG. 6E), Biochanin A diacetate (FIG. 6F), Biochanin A-7-pentanoate (FIG. 6G), Biochanin A dipentanoate (FIG. 6H), Biochanin A-7-pivalate (FIG. 7A), Biochanin A-dipavalate (FIG. 7B), Biochanin A-7-acrylate (FIG. 7C), Biochanin A diacrylate (FIG. 7D), Biochanin A-7-methyl fumarate (FIG. 7E), Biochanin A-di(methyl fumarate) (FIG. 7F), Biochanin A-7-butylcarbamate (FIG. 7G), Biochanin A di(butylcarbamate) (FIG. 7H), Biochanin A-7-phosphate disodium salt (FIG. 8A), Biochanin A-7-isopropylate (FIG. 8B), 7-pivaloxymethyl-Biochanin A (FIG. 8C), Biochanin A diisopropylate (FIG. 8D), Biochanin A-7-isopropyl carbonate (FIG. 8E), Biochanin A diisopropyl carbonate (FIG. 8F), Isopropyloxycarbonylmethoxy-Biochanin A (FIG. 8G).

- effect on BEST1 anion transport activity (mutant BEST1 R218C [2]; MDCKII cells, FIG. 4A, comparison of Biochanin A derivatives): greatest effect
- anion transport activity (I- influx) (mutant BEST1 R218C [2]; MDCKII mutant BEST1-R218C, various concentrations from 2 μM to 20 μM, 24 h, FIG. 4C): strongly
- anion transport activity (kinetics of I- efflux) in comparison to untreated cells (mutant BEST1 R218C [3]): strongly increased
Structure (SMILES): COc1ccc(-c2coc3cc(OC(C)=O)cc(OC(C)=O)c3c2=O)cc1 [Biochanin A diacetate, 3-(4-Methoxyphenyl)-4oxo-4H-chromene-5,7-diyl diacetate]
- effect on kinetics of I- influx (anion transport activity) [1]: no or only little effect
